# Reference: patent US20030095958A1, “Inhibitors of bace” (priority 2001, published 2003)
# Target: BACE (Homo sapiens, UniProt P56817)
# Assay: Ki Determination for the Inhibition of BACE (FS-1 peptide fluorescence cleavage assay)
# Type: biochemical
# Details: apparent Ki; 50 nM BACE, 10 μM FS-1 substrate, 0.1M sodium acetate pH 4.5
# Protocol: Compounds were tested against BACE activity using the following modifications of the method described in J. Ermolieff et al. (2000) Biochemistry 39(51):16263.
# All compound evaluations were performed in 0.1M sodium acetate (buffer), pH, 4.5, 10 μM substrate (FS-1 peptide as described in the reference above; this is commercially available), varying concentrations of the test compound or control (DMSO to yeild 2% vol/vol), and 50 nM BACE. The assay volume is 100 μL.
# Two microliters of the test compound dissolved in DMSO are added to each well in a 96-well microtiter plate. Seventy eight microliters of BACE are mixed with buffer and added to each well then incubated at room temperature for 15 minutes. A stock solution of 50 μM FS-1 substrate was prepared by addition of an aliquot of FS-1 substrate which was dissolved in DMSO to the buffer and mixed well. The reaction is initiated by addition of 20 μL of the FS-1 mix to the remaining, preincubated assay components. The cleavage reaction of substrate to product is measured using a Molecular Devices fluorescence plate reader with the excitation and emission filter pairs of 355 nm and 495 nm, respectively. Apparent Ki values are determined by fitting the data to the integrated equation for competitive tight binding inhibition.
# BACE, sequence (P56817 46-501): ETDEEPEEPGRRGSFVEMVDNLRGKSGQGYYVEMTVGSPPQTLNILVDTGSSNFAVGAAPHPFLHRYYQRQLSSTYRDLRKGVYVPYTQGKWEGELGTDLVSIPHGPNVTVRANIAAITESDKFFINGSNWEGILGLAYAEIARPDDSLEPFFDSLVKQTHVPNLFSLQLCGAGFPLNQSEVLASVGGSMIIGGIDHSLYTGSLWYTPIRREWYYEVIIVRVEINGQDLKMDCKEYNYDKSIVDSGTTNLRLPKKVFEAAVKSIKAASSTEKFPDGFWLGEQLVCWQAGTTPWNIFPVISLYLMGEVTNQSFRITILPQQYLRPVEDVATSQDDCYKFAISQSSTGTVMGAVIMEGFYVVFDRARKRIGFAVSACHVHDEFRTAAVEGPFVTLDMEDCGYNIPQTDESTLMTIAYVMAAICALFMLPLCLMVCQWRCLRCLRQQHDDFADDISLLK
row,Ki [µM],SMILES
1,< 3,"Cc1c(COc2ccc3c(c2)c2c(n3Cc3cccc4ccccc34)CNCC2)cccc1C(F)(F)F [Compound 521, 6-(2-Methyl-3-trifluoromethyl-benzyloxy)-9-naphthalen-1-ylmethyl-2,3,4,9-tetrahydro-1H-b-carboline]"
2,< 3,"O=C(Nc1cc(-c2cc(Cl)ccc2Cl)ccc1N1CCNCC1)c1cccc2ccccc12 [Compound 108, Naphthalene-1-carboxylic acid (2′,5′-dichloro-4-piperazin-1-yl-biphenyl-3-yl)-amide]"
3,> 30,"Cc1cc(N2CCNCC2)c(NC(=O)c2cccc3ccccc23)cc1Br [Compound 112, Naphthalene-1-carboxylic acid (5-bromo-4-methyl-2-piperazin-1-yl-phenyl)-amide]"
4,3 to 30,"C1=C(c2cnc(OCc3ccccc3)nc2OCc2ccccc2)CCNC1 [Compound 210, 2,4-Bis-benzyloxy-5-(1,2,3,6-tetrahydro-pyridin-4-yl)-pyrimidine]"
5,< 3,"FC(F)(F)c1ccccc1OCc1cc(-c2cc3ccccc3o2)c(COc2ccccc2C(F)(F)F)cc1C1=CCNCC1 [Compound 357, 4-[4-Benzofuran-2-yl-2,5-bis-(2-trifluoromethyl-phenoxymethyl)-phenyl]-1,2,3,6-tetrahydro-pyridine]"
6,< 3,"CC(=O)c1ccccc1-c1cc(COc2ccccc2C(F)(F)F)c(C2=CCNCC2)cc1COc1ccccc1C(F)(F)F [Compound 350, 1-[4′-(1,2,3,6-Tetrahydro-pyridin-4-yl)-2′,5′-bis-(2-trifluoromethyl-phenoxymethyl)-biphenyl-2-yl]-ethanone]"
7,3 to 30,"COC(=O)c1cc(C2=CCNCC2)c(COc2ccccc2C(F)(F)F)cc1Br [Compound 381, 2-Bromo-5-(1,2,3,6-tetrahydro-pyridin-4-yl)-4-(2-trifluoromethyl-phenoxymethyl)-benzoic acid methyl ester]"
8,3 to 30,"O=C(Nc1cc(C(F)(F)F)ccc1N1CCNCC1)c1ccc2cnccc2n1 [Compound 190, [1,6]Naphthyridine-2-carboxylic acid (2-piperazin-1-yl-5-trifluoromethyl-phenyl)-amide]"
9,< 3,"CC(O)c1ccccc1-c1cc(COc2ccccc2C(F)(F)F)c(C2=CCNCC2)cc1COc1ccccc1C(F)(F)F (stereo not drawn) [Compound 355, 1-[4′-(1,2,3,6-Tetrahydro-pyridin-4-yl)-2′,5′-bis-(2-trifluoromethyl-phenoxymethyl)-biphenyl-2-yl]-ethanol]"
10,< 3,"O=C(c1cccc2ccccc12)n1c2c(c3cc(OCc4ccccc4OC(F)F)ccc31)CCNC2 [Compound 529, [6-(2-Difluoromethoxy-benzyloxy)-1,2,3,4-tetrahydro-b-carbolin-9-yl]-naphthalen-1-yl-methanone]"
11,3 to 30,"COC(=O)c1ccc(C(=O)OCc2ccc(COc3ccccc3C(F)(F)F)cc2C2=CCNCC2)cc1 [Compound 317, Terephthalic acid 1-methyl ester 4-[2-(1,2,3,6-tetrahydro-pyridin-4-yl)-4-(2-trifluoromethyl-phenoxymethyl)-benzyl] ester]"
12,3 to 30,CC(NC(=O)C1CNCCC1c1ccc(-c2ccccc2)cc1)c1cccc2ccccc12 (stereo not drawn) [Compound 404]
13,> 30,"O=C(Nc1cc(C(F)(F)F)ccc1N1CCNCC1)c1ccc(F)c2ccccc12 [Compound 101, 4-Fluoro-naphthalene-1-carboxylic acid (2-piperazin-1-yl-5-trifluoromethyl-phenyl)-amide]"
14,3 to 30,"O=C(NCc1cccc2ccccc12)C1CNCCC1c1ccc(COc2ccccc2C(F)(F)F)cc1 (stereo not drawn) [Compound 215, 4-[4-(2-Trifluoromethyl-phenoxymethyl)-phenyl]-piperidine-3-carboxylic acid (naphthalen-1-ylmethyl)-amide]"
15,3 to 30,"c1ccc(COc2ccc3c(c2)c2c(n3Cc3ccc4ccccc4c3)CNCC2)cc1 [Compound 305, 6-Benzyloxy-9-naphthalen-2-ylmethyl-2,3,4,9-tetrahydro-1H-b-carboline]"
16,3 to 30,"Oc1ccccc1-c1ccc(C2=CCNCC2)c(COc2ccccc2C(F)(F)F)c1 [Compound 362, 4′-(1,2,3,6-Tetrahydro-pyridin-4-yl)-3′-(2-trifluoromethyl-phenoxymethyl)-biphenyl-2-ol]"
17,< 3,"FC(F)(F)c1ccccc1OCc1cc(-c2cccc3ccccc23)c(COc2ccccc2C(F)(F)F)cc1C1=CCNCC1 [Compound 301, 4-[4-Naphthalen-1-yl-2,5-bis-(2-trifluoromethyl-phenoxymethyl)-phenyl]-1,2,3,6-tetrahydro-pyridine]"
18,3 to 30,"O=C(Nc1cc(C(F)(F)F)cc(NC(=O)c2ccc3ccccc3c2)c1N1CCNCC1)c1ccc2ccccc2c1 [Compound 115, 4-{2,6-Bis-[(naphthalene-2-carbonyl)-amino]-4-trifluoromethyl-phenyl}-piperazine]"
19,< 3,"O=C(NCc1ccccc1)C1CN(c2ccc(-c3ccc(C(F)(F)F)cc3)cc2NCc2ccc3ccccc3c2)CCN1 (stereo not drawn) [Compound 194, 4-{3-[(Naphthalen-2-ylmethyl)-amino]-4′-trifluoromethyl-biphenyl-4-yl}-piperazine-2-carboxylic acid benzylamide]"
20,3 to 30,"O=S(=O)(Nc1cc(-c2ccc(Cl)c(Cl)c2)ccc1N1CCNCC1)c1ccc(-c2cccc(Cl)c2)cc1 [Compound 180, 3′-Chloro-biphenyl-4-sulfonic acid (3′,4′-dichloro-4-piperazin-1-yl-biphenyl-3-yl)-amide]"
21,3 to 30,"Oc1ccc(-c2ccc(C3=CCNCC3)c(COc3ccccc3C(F)(F)F)c2)cc1 [Compound 361, 4′-(1,2,3,6-Tetrahydro-pyridin-4-yl)-3′-(2-trifluoromethyl-phenoxymethyl)-biphenyl-4-ol]"
22,3 to 30,"O=C(Nc1cnc(-c2ccc(Cl)c(Cl)c2)nc1N1CCNCC1)c1cccc2ccccc12 [Compound 217, Naphthalene-1-carboxylic acid [2-(3,4-dichloro-phenyl)-4-piperazin-1-yl-pyrimidin-5-yl]-amide]"
23,3 to 30,"O=C(Nc1cc(C(F)(F)F)ccc1N1CCNCC1)c1ccc2ccccc2c1 [Compound 113, Naphthalene-2-carboxylic acid (2-piperazin-1-yl-5-trifluoromethyl-phenyl)-amide]"
24,3 to 30,"O=C(COCc1ccccc1)OCc1ccc(COc2ccccc2C(F)(F)F)cc1C1=CCNCC1 [Compound 315, Benzyloxy-acetic acid 2-(1,2,3,6-tetrahydro-pyridin-4-yl)-4-(2-trifluoromethyl-phenoxymethyl)-benzyl ester]"
25,3 to 30,"FC(F)(F)c1ccccc1OCc1cc(-c2ccc(Cl)c(Cl)c2)c(COc2ccccc2C(F)(F)F)cc1C1=CCNCC1 [Compound 335, 4-[3′,4′-Dichloro-2,5-bis-(2-trifluoromethyl-phenoxymethyl)-biphenyl-4-yl]-1,2,3,6-tetrahydro-pyridine]"
26,< 3,"FC(F)(F)c1ccccc1OCc1cc(-c2ccsc2)c(COc2ccccc2C(F)(F)F)cc1C1=CCNCC1 [Compound 342, 4-[4-Thiophen-3-yl-2,5-bis-(2-trifluoromethyl-phenoxymethyl)-phenyl]-1,2,3,6-tetrahydro-pyridine]"
27,< 3,"COc1cc(COc2ccc3c(c2)c2c(n3C(=O)c3ccc4ccccc4c3)CNCC2)cc(OC)c1 [Compound 527, [6-(3,5-Dimethoxy-benzyloxy)-1,2,3,4-tetrahydro-b-carbolin-9-yl]-naphthalen-2-yl-methanone]"
